The record followed here is patent US6653321B1, “Naphthylsulfonic acids and related compounds as glucose uptake agonists” (Telik, Inc., priority 1999, dated 2003).

For the test, the target named is T1, β-kinase domain of the human insulin receptor (CKD) (Homo sapiens, UniProt P06213).
T1 construct: The complete β-kinase domain of the human insulin receptor (CKD); made in house
T1 sequence (P06213 980-1382 limits assumed): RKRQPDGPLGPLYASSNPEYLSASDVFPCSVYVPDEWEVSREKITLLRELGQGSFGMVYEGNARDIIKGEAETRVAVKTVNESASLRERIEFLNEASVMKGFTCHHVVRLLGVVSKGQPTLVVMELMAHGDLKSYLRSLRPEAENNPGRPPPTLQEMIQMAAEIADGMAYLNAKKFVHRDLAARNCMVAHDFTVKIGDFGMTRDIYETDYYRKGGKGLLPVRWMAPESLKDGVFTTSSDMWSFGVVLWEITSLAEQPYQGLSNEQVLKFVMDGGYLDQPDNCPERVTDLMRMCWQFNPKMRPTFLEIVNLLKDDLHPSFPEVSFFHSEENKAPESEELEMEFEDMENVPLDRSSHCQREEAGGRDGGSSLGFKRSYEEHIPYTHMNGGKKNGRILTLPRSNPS
Nature of the test: 32P-Cytoplasmic Kinase Domain (CKD) autophosphorylation assay. The class given is biochemical. The note with it: 32P incorporated into CKD band, percentage of the vehicle (DMSO) level; 10 minutes at room temperature; compound concentration not given. Here is the method: The complete β-kinase domain of the human insulin receptor (CKD) was expressed in, and purified from, baculovirus. CKD (4.0 μg/mL), in a solution of 50 mM Tris.HCl, 2 mM MnCl2, 10 mM MgCl2 (50 μl final volume), was combined with […] ATP, and 5 μCi ^32P-ATP (3000 Ci/mmol.). A test compound, or the vehicle (DMSO), was added to a final DMSO concentration of 1%. The mixture was incubated for 10 minutes at room temperature. The reaction was terminated by the addition of 10 μl of 200 mM EDTA. A 30 μl volume was removed, mixed with 5 μl of 6×Laemmeli sodium dodecyl sulfate (SDS) treatment buffer, and heated to 94° C. for 5 minutes. A 20 μl aliquot was then run on an SDS-PAGE gel. The radioactivity incorporated into the CKD band is quantified by phosphorimaging of the gel, or scintillation counting of the excised bands.
The potency of a compound for increasing phosphorylation is expressed as a percentage of the vehicle level.
Regarding `Cc1ccc(S(=O)(=O)Nc2cc(C(=O)Nc3cccc4cc(S(=O)(=O)O)ccc34)cc(C(=O)Nc3cccc4cc(S(=O)(=O)O)ccc34)c2)cc1` [Compound 53, 5-[(3-{[(4-methylphenyl)sulfonyl]amino}-5-[N-(6-sulfonaphthyl)carbamoyl]phenyl)carbonylamino]naphthalene-2-sulfonic acid], the “Activity (% Control)” value is listed as 105.7 % Control.

Take `O=C(O)c1cccc(C(=O)Nc2cc(C(=O)Nc3cccc4cc(S(=O)(=O)O)ccc34)cc(C(=O)Nc3cccc4cc(S(=O)(=O)O)ccc34)c2)c1` [Compound 30, 3-(N-{3,5-bis[N-(6-sulfonaphthyl)carbamoyl]phenyl}carbamoyl)benzoic acid]: the “Activity (% Control)” value came to 84.1 % Control.

`COc1ccc(NC(=O)Nc2cc(C(=O)Nc3cccc4cc(S(=O)(=O)O)ccc34)cc(C(=O)Nc3cccc4cc(S(=O)(=O)O)ccc34)c2)cc1` [Compound 65, 5-[(3-{[(4-methoxyphenyl)amino]carbonylamino}-5-[N-(6-sulfonaphthyl)carbamoyl]phenyl)carbonylamino]naphthalene-2-sulfonic acid]: the “Activity (% Control)” value turned out to be 85.9 % Control.

For the molecule `N[C@@H](CC(=O)O)C(=O)Nc1cc(C(=O)Nc2cccc3cc(S(=O)(=O)O)ccc23)cc(C(=O)Nc2cccc3cc(S(=O)(=O)O)ccc23)c1` [Compound 26, (3S)-3-amino-3-(N-{3,5-bis[N-(6-sulfonaphthyl)carbamoyl]phenyl}carbamoyl)propanoic acid], the “Activity (% Control)” value was found to be 91.4 % Control.

`O=C(Nc1cc(C(=O)Nc2cccc3cc(S(=O)(=O)O)ccc23)cc(C(=O)Nc2cccc3cc(S(=O)(=O)O)ccc23)c1)c1ccc2ccccc2c1` [Compound 24, 5-({3-(2-naphthylcarbonylamino)-5-[N-(6-sulfonaphthyl)carbamoyl]phenyl}carbonylamino)naphthalene-2-sulfonic acid]: the “Activity (% Control)” value is 89.6 % Control.

With `O=C(Nc1cccc2cc(S(=O)(=O)O)ccc12)c1cc(NS(=O)(=O)Cc2ccccc2)cc(C(=O)Nc2cccc3cc(S(=O)(=O)O)ccc23)c1` [Compound 56, 5-[(5-{[benzylsulfonyl]amino}-3-[N-(6-sulfonaphthyl)carbamoyl]phenyl)carbonylamino]naphthalene-2-sulfonic acid], the “Activity (% Control)” value is recorded as 102.4 % Control.

As for `O=C(Nc1cccc2cc(S(=O)(=O)O)ccc12)c1cc(NC(=O)c2ccco2)cc(C(=O)Nc2cccc3cc(S(=O)(=O)O)ccc23)c1` [Compound 34, 5-({3-(2-furylcarbonylamino)-5-[N-(6-sulfonaphthyl)carbamoyl]phenyl}carbonylamino)naphthalene-2-sulfonic acid], the “Activity (% Control)” value came out at 119.5 % Control.

In the case of `O=C(Nc1cccc2cc(S(=O)(=O)O)ccc12)c1cc(NC(=O)c2cccc3ccccc23)cc(C(=O)Nc2cccc3cc(S(=O)(=O)O)ccc23)c1` [Compound 25, 5-({3-(1-naphthylcarbonylamino)-5-[N-(6-sulfonaphthyl)carbamoyl]phenyl}carbonylamino)naphthalene-2-sulfonic acid], the “Activity (% Control)” value was found to be 83.7 % Control.

On to `O=C(Nc1cc(C(=O)Nc2cccc3cc(S(=O)(=O)O)ccc23)cc(C(=O)Nc2cccc3cc(S(=O)(=O)O)ccc23)c1)c1ccc(F)cc1` [Compound 12, 5-({3-[(4-fluorophenyl)carbonylamino]-5-[N-(6-sulfonaphthyl)carbamoyl]phenyl}carbonylamino)naphthalene-2-sulfonic acid], for which the “Activity (% Control)” value turned out to be 88.6 % Control.

With `O=C(Cc1ccccc1)Nc1cc(C(=O)Nc2cccc3cc(S(=O)(=O)O)ccc23)cc(C(=O)Nc2cccc3cc(S(=O)(=O)O)ccc23)c1` [Compound 37, 5-({3-(2-phenylacetylamino)-5-[N-(6-sulfonaphthyl)carbamoyl]phenyl}carbonylamino)naphthalene-2-sulfonic acid], the “Activity (% Control)” value worked out at 113.2 % Control.

Take `O=C(Nc1cccc2cc(S(=O)(=O)O)ccc12)c1cc(NC(=O)c2ccccc2S(=O)(=O)O)cc(C(=O)Nc2cccc3cc(S(=O)(=O)O)ccc23)c1` [Compound 29, 5-({5-[N-(6-sulfonaphthyl)carbamoyl]-3-[(2-sulfophenyl)carbonylamino]phenyl}carbonylamino)naphthalene-2-sulfonic acid]: the “Activity (% Control)” value was found to be 75.6 % Control.

Consider `O=C(O)CC(C(=O)Nc1cc(C(=O)Nc2cccc3cc(S(=O)(=O)O)ccc23)cc(C(=O)Nc2cccc3cc(S(=O)(=O)O)ccc23)c1)c1ccccc1` (stereo not shown) [Compound 27, 3-(N-{3,5-bis[N-(6-sulfonaphthyl)carbamoyl]phenyl}carbamoyl)-3-phenylpropanoic acid], for which the “Activity (% Control)” value is on record as 161.2 % Control.

On to `Cc1ccc(NC(=O)CCC(=O)Nc2cc(C(=O)Nc3cccc4cc(S(=O)(=O)O)ccc34)cc(C(=O)Nc3cccc4cc(S(=O)(=O)O)ccc34)c2)cc1` [Compound 42, 5-[(3-{3-[N-(4-methylphenyl)carbamoyl]propanoylamino}-5-[N-(6-sulfonaphthyl)carbamoyl]phenyl)carbonylamino]naphthalene-2-sulfonic acid], for which the “Activity (% Control)” value came to 116.7 % Control.

Take `O=C(Nc1cccc(Cl)c1)Nc1cc(C(=O)Nc2cccc3cc(S(=O)(=O)O)ccc23)cc(C(=O)Nc2cccc3cc(S(=O)(=O)O)ccc23)c1` [Compound 57, 5-[(3-{[(3-chlorophenyl)amino]carbonylamino}-5-[N-(6-sulfonaphthyl)carbamoyl]phenyl)carbonylamino]naphthalene-2-sulfonic acid]: the “Activity (% Control)” value is 109.6 % Control.

As for `Cc1ccc(CC(=O)Nc2cc(C(=O)Nc3cccc4cc(S(=O)(=O)O)ccc34)cc(C(=O)Nc3cccc4cc(S(=O)(=O)O)ccc34)c2)cc1` [Compound 43, 5-({3-[2-(4-methylphenyl)acetylamino]-5-[N-(6-sulfonaphthyl)carbamoyl]phenyl}carbonylamino)naphthalene-2-sulfonic acid], the “Activity (% Control)” value is 124.2 % Control.

As for `O=C(O)CCC(=O)Nc1cc(C(=O)Nc2cccc3cc(S(=O)(=O)O)ccc23)cc(C(=O)Nc2cccc3cc(S(=O)(=O)O)ccc23)c1` [Compound 32, 3-(N-{3,5-bis[N-(6-sulfonaphthyl)carbamoyl]phenyl}carbamoyl)propanoic acid], the “Activity (% Control)” value is reported as 109.9 % Control.

`O=C(Nc1cccc2cc(S(=O)(=O)O)ccc12)c1cc(NS(=O)(=O)c2ccc(Cl)cc2)cc(C(=O)Nc2cccc3cc(S(=O)(=O)O)ccc23)c1` [Compound 50, 5-[(3-{[(4-chlorophenyl)sulfonyl]amino}-5-[N-(6-sulfonaphthyl)carbamoyl]phenyl)carbonylamino]naphthalene-2-sulfonic acid]: the “Activity (% Control)” value worked out at 123.8 % Control.

Take `O=C(Nc1cccc2cc(S(=O)(=O)O)ccc12)c1cc(NS(=O)(=O)c2ccccc2)cc(C(=O)Nc2cccc3cc(S(=O)(=O)O)ccc23)c1` [Compound 48, 5-({3-[(phenylsulfonyl)amino]-5-[N-(6-sulfonaphthyl)carbamoyl]phenyl}carbonylamino)naphthalene-2-sulfonic acid]: the “Activity (% Control)” value amounted to 114.2 % Control.

On to `O=C(CC(C(=O)O)c1ccccc1)Nc1cc(C(=O)Nc2cccc3cc(S(=O)(=O)O)ccc23)cc(C(=O)Nc2cccc3cc(S(=O)(=O)O)ccc23)c1` (stereo not shown) [Compound 28, 3-(N-{3,5-bis[N-(6-sulfonaphthyl)carbamoyl]phenyl}carbamoyl)-2-phenylpropanoic acid], for which the “Activity (% Control)” value is 84.6 % Control.
